Results on 40 compounds are retold here after ChEMBL document CHEMBL1134501, “Structure-activity studies for a novel series of bicyclic substituted hexahydrobenz[e]isoindole alpha1A adrenoceptor antagonists as potential agents for the symptomatic treatment of benign prostatic hyperplasia” (J Med Chem, 2001).

The species entered for assay [1] is Cricetulus griseus. The experiment in a line: Selectivity ratio (alpha-1B/alpha-1A) of the compound.
Assay [2] concerns the target T1, Alpha-1A adrenergic receptor (Rattus norvegicus, UniProt P43140).
T1 sequence (P43140 whole entry): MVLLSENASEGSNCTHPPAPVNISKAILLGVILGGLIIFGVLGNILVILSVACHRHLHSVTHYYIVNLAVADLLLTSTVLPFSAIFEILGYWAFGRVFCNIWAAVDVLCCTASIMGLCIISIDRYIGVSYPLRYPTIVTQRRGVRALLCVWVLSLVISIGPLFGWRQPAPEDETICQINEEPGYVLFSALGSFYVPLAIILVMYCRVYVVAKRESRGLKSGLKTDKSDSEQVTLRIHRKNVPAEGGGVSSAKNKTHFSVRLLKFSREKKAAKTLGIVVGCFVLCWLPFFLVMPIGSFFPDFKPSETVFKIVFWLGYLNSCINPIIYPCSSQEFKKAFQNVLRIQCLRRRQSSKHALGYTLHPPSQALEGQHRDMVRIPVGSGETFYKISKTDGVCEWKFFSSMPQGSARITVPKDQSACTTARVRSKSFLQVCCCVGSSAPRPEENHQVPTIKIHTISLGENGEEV
The experiment in a line: Binding affinity to alpha-1A adrenergic receptor in rat submaxillary gland. Format: tissue-based.

For assay [3], the target named is T2, Alpha-1D adrenergic receptor (Rattus norvegicus, UniProt P23944).
T2 sequence (P23944 whole entry): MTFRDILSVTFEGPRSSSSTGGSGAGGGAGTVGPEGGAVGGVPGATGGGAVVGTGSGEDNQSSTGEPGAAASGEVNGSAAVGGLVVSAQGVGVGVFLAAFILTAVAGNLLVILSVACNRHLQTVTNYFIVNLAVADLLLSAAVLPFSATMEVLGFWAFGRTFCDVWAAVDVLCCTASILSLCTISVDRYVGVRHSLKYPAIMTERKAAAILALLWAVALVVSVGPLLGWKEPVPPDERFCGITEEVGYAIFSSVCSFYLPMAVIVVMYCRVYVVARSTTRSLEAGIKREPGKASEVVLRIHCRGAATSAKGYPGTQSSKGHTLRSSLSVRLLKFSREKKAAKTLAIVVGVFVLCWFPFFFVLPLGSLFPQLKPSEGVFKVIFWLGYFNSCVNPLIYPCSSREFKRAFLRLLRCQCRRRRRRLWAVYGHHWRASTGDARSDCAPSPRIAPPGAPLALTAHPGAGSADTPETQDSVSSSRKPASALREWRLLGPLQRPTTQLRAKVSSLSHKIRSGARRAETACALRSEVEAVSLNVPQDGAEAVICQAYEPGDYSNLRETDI
The experiment in a line: Binding affinity to rat alpha-1D adrenergic receptor expressed in LTK cells. In kind it is cell-based.

The subject of assay [4] is Canis familiaris. The experiment in a line: In vivo antagonist dissociation constant in intaraurethral pressure model in dogs. Conditions: Canis lupus familiaris, read-out: pA2 (converted).

pKi: −log10 of the molar value.

For `COc1cc2c(cc1OC)C(=O)N(CCN1C[C@@H]3CCc4c(OC)cccc4[C@@H]3C1)CN2`, in assay [1], the Ratio turned out to be 7.4. Further, the pKi in assay [2] is 7.89; in assay [3], 7.14.
The like results for `COc1cccc2c1CC[C@H]1CN(CCn3c(=O)[nH]c4sccc4c3=O)C[C@@H]21` were, in that order, 2.04, 8.99 and 9.00.
Regarding `COc1cccc2c1CC[C@H]1CN(CCn3c(=O)[nH]c4cccc(C)c4c3=O)C[C@@H]21`, in assay [1], the Ratio was determined as 0.9. Besides, the pKi was 8.94 in assay [2] and 8.95 in assay [3].
On the same counts, the results for `COc1ccc2[nH]c(=O)n(CCN3C[C@@H]4CCc5c(OC)cccc5[C@@H]4C3)c(=O)c2c1` are 3.68, 8.99 and 8.95.
On the same counts, the results for `COc1cccc2c1CC[C@H]1CN(CCn3c(=O)[nH]c4cccnc4c3=O)C[C@@H]21` are 2.29, 8.45 and 8.60.
On to `COc1cccc2c1CC[C@H]1CN(CCn3c(=O)[nH]c4cccc(Cl)c4c3=O)C[C@@H]21`, for which the Ratio in assay [1] stood at 1.31. In addition, the pKi was 9.15 in assay [2] and 9.16 in assay [3].
The like results for `COC(=O)c1ccc2c(=O)n(CCN3C[C@@H]4CCc5c(OC)cccc5[C@@H]4C3)c(=O)[nH]c2c1` were, in that order, 6.07, 9.57 and 9.11.
`COC(=O)c1cc2[nH]c(=O)n(CCN3C[C@@H]4CCc5c(OC)cccc5[C@@H]4C3)c(=O)c2s1`: the Ratio in assay [1] was 2.3. For the same compound, the figures for the pKi in assay [2] and in assay [3] were 8.83 and 8.86, respectively.
Consider `COc1cc2c(cc1OC)CN(CCN1C[C@@H]3CCc4c(OC)cccc4[C@@H]3C1)CC2`, for which the Ratio in assay [1] amounted to 1.43. Besides, the pKi in assay [2] was 7.09; in assay [3], 7.08.
In the case of `COc1cccc2c1CC[C@H]1CN(CCn3c(=O)[nH]c4c(C)csc4c3=O)C[C@@H]21`, the negative logarithm of the Ki (pKi) in assay [2] was 9.07; in assay [3] it was 9.15.
The like results for `COc1cccc2c1CC[C@H]1CN(CCn3c(=O)[nH]c4ccsc4c3=O)C[C@@H]21` were, in that order, 8.86 and 9.04.
Consider `COc1cc2c(cc1OC)NC(=O)N(CCN1C[C@@H]3CCc4c(OC)cccc4[C@@H]3C1)C2`, for which the Ratio in assay [1] worked out at 1.5. Moreover, the pKi was 6.91 in assay [2] and 6.77 in assay [3].
On to `COc1cccc2c1CC[C@H]1CN(CCn3c(=O)[nH]c4cc([N+](=O)[O-])ccc4c3=O)C[C@@H]21`, for which the Ratio in assay [1] amounted to 3.65. For the same compound, the pKi in assay [2] is 9.04; in assay [3], 8.92.
On the same counts, the results for `COc1cccc2c1CC[C@H]1CN(CCn3c(=O)[nH]c4cc(C)c(C)cc4c3=O)C[C@@H]21` are 2.94, 8.86 and 9.14.
On the same counts, the results for `COc1cccc2c1CC[C@H]1CN(CCn3c(=O)[nH]c4c(C(C)C)c(OC)sc4c3=O)C[C@@H]21` are 5.6, 9.39 and 8.82.
On the same counts, the results for `COc1cccc2c1CC[C@H]1CN(CCn3c(=O)[nH]c4cc(-c5ccccc5)sc4c3=O)C[C@@H]21` are 1.5, 8.11 and 8.36.
For `COc1cc2c(cc1OC)C(=O)N(CCN1C[C@@H]3CCc4c(OC)cccc4[C@@H]3C1)CC2`, in assay [1], the Ratio was found to be 7.83. The pKi was 8.11 in assay [2] and 7.23 in assay [3].
Regarding `COc1cccc2c1CC[C@H]1CN(CCn3c(=O)[nH]c4cc(NC(C)=O)ccc4c3=O)C[C@@H]21`, the Ratio in assay [1] is 1.95. Also, the pKi was 9.37 in assay [2] and 9.39 in assay [3].
`COc1cccc2c1CCC1CN(CCn3c(=O)[nH]c4ccsc4c3=O)CC21` (stereo not given): in assay [1], the Ratio was 1.17. For the same compound, the pKi was 8.86 in assay [2] and 9.04 in assay [3].
As to `COc1cccc2c1CC[C@H]1CN(CCn3c(=O)[nH]c4ncccc4c3=O)C[C@@H]21`, the pKi in assay [3] was 8.70.
As for `COc1cc2c(=O)n(CCN3C[C@@H]4CCc5c(OC)cccc5[C@@H]4C3)c(=O)n(C)c2cc1OC`, the Ratio in assay [1] came to 13.2. The figures for the pKi in assay [2] and in assay [3] were 9.60 and 8.43, respectively.
Take `COc1cccc2c1CC[C@H]1CN(CCn3c(=O)[nH]c4c(OC)cccc4c3=O)C[C@@H]21`: the Ratio in assay [1] amounted to 2.67. In addition, the pKi is 9.07 in assay [2] and 8.94 in assay [3].
The like results for `COc1cccc2c1CC[C@H]1CN(CCn3c(=O)[nH]c4cnccc4c3=O)C[C@@H]21` were, in that order, 2.19, 8.85 and 8.75.
Take `CCOc1ccccc1OCCN[C@H](C)Cc1ccc(OC)c(S(N)(=O)=O)c1` [TAMSULOSIN]: in assay [4], the Kb was 1.35 nM.
Consider `COc1ccc2c(=O)n(CCN3C[C@@H]4CCc5c(OC)cccc5[C@@H]4C3)c(=O)[nH]c2c1`, for which, in assay [1], the Ratio was 7.3. Also, the pKi was 10.05 in assay [2] and 9.68 in assay [3].
In the case of `COc1cccc2c1CC[C@H]1CN(CCn3c(=O)[nH]c4[nH]ccc4c3=O)C[C@@H]21`, in assay [1], the Ratio amounted to 2.15. Also, the pKi in assay [2] is 8.92; in assay [3], 8.78.
Regarding `COc1cccc2c1CC[C@H]1CN(CCn3c(=O)[nH]c4c(C)c(OC)sc4c3=O)C[C@@H]21`, in assay [1], the Ratio worked out at 6.5. Further, the values for the pKi in assay [2] and in assay [3] were 8.96 and 8.84, respectively.
As for `COc1cc2c(cc1OC)NCN(CCN1C[C@@H]3CCc4c(OC)cccc4[C@@H]3C1)C2`, in assay [1], the Ratio is 1.01. Also, the pKi in assay [2] is 7.21; in assay [3], 6.72.
The like results for `COc1cccc2c1CC[C@H]1CN(CCn3c(=O)[nH]c4c(C)cc(C)cc4c3=O)C[C@@H]21` were, in that order, 5.96, 8.56 and 8.54.
Regarding `COc1cccc2c1CC[C@H]1CN(CCn3c(=O)[nH]c4ccccc4c3=O)C[C@@H]21`, the Ratio in assay [1] came to 1.73. Besides, the pKi in assay [2] was 9.17; in assay [3], 9.21.
With `COc1cc2nc(N3CCN(C(=O)C4CCCO4)CC3)nc(N)c2cc1OC` (stereo not given) [TERAZOSIN], the Kb in assay [4] is 95.5 nM.
Consider `COc1cccc2c1CC[C@H]1CN(CCn3c(=O)[nH]c4cscc4c3=O)C[C@@H]21`, for which, in assay [1], the Ratio amounted to 2.1. For the same compound, the pKi was 9.32 in assay [2] and 9.28 in assay [3].
On the same counts, the results for `COc1cc2[nH]c(=O)n(CCN3C[C@@H]4CCc5c(OC)cccc5[C@@H]4C3)c(=O)c2cc1Cl` are 4.9, 8.72 and 8.57.
With `COc1cc(N)c(C(=O)NCCN2C[C@@H]3CCc4c(OC)cccc4[C@@H]3C2)cc1OC`, the Ratio in assay [1] was determined as 7.8. The results for the pKi in assay [2] and in assay [3] were 8.43 and 7.49, respectively.
As to `COc1cc2[nH]c(=O)n(CCN3C[C@@H]4CCc5c(OC)cccc5[C@@H]4C3)c(=O)c2s1`, the Ratio in assay [1] was 18. Besides, the results for the negative-log Ki (pKi) in assay [2] and in assay [3] were 10.40 and 9.62, respectively.
For `COc1cccc2c1CC[C@H]1CN(CCn3c(=O)[nH]c4ccncc4c3=O)C[C@@H]21`, the Ratio in assay [1] was determined as 1.55. Also, the pKi in assay [2] was 8.17; in assay [3], 8.54.
The like results for `COc1cccc2c1CC[C@H]1CN(CCn3c(=O)[nH]c4nccnc4c3=O)C[C@@H]21` were, in that order, 1.36, 8.04 and 8.26.
Take `COc1cc2[nH]c(=O)n(CCN3C[C@@H]4CCc5c(OC)cccc5[C@@H]4C3)c(=O)c2cc1OC`: the pKi in assay [3] was 8.85.
`COc1cccc2c1CC[C@H]1CN(CCn3c(=O)[nH]c4c(C)c(C)ccc4c3=O)C[C@@H]21`: the Ratio in assay [1] is 14.6. Moreover, the pKi in assay [2] is 10.05; in assay [3] it was 9.05.
In the case of `COc1cccc2c1CC[C@H]1CN(CCn3c(=O)[nH]c4c(-c5ccccc5)csc4c3=O)C[C@@H]21`, the Ratio in assay [1] stood at 1. The pKi in assay [2] was 9.48; in assay [3], 9.18.
